System: Caenorhabditis elegans
Assay: C. elegans L1 nematicidal dose response in 96-well plates, 5 day visual score (Example 2; same procedure for Example 7, Table 3)
Assay type: in vivo
Design: key to 5 Day Visual Score V1 / 5 Day Visual Score V2 / 5 Day Visual Score V3 / 5 Day Visual Score V4 / 5 Day Visual Score V6 / 5 Day Visual Score V5 / Initial HTS Run Visual Score / Follow-up HTS Run Visual Score: Dead: only stiff L1s (no movement); Dead (L4): worms are dead, but at a later larval stage; majority of worms are L1 (based on size) worms move when plate is tapped; majority of worms are L2 (based on size); majority of worms are L3 (based on size); majority of worms are L4 (based on size); AD: majority of worms are adult; #AD: 5 adult worms or less; B!: sterile (0-25 progeny); B: low broodsize (25-100 progeny); ˜B: moderate broodsize (100-250 progeny); <: reduced broodsize (250-500 progeny); OK: no effect (˜1000+ progeny)
Settings: C. elegans L1, scored day 5; for 5 Day Visual Score V6: 0.3 μM; for 5 Day Visual Score V4: 2.6 μM; for 5 Day Visual Score V5: 0.9 μM; for 5 Day Visual Score V3: 7.8 μM; for 5 Day Visual Score V2: 23.3 μM; for 5 Day Visual Score V1: 70 μM
Experimental: Caenorhabditis elegans adults were grown on Nematode Growth Medium (NGM) until they produced eggs, then the adults were removed.
The eggs were allowed to hatch, and the L1 larvae collected. See The Nematode Caenorhabditis elegans (1988) Cold Spring Harbor Laboratory Press. Using a Matrix Programmable Pipette, the L1s were distributed into 96-well tissue culture plates, 20 L1 in 50 μl NGM per well. Antibiotic/Antimyoticwas added to each well, and 1% by weight E. coli strain HB101. The subject anthelmintic compounds were stored at 5 mM in 100% DMSO. 0.7 μl of compounds 1-31 were added to the left-most column of wells to yield a final concentration of 70 μM in 1.4% DMSO, with 1.4% DMSO only as the control. The compounds were then subjected to 5 more 3-fold dilutions from left to right to yield 6 column concentrations of 70 μM, 23.3 μM, 7.8 μM, 2.6 μM, 0.9 μM, and 0.3 μM. Plates were stored in air-tight Rubbermaid plastic boxes at 20° C. The nematodes had cleared all control wells by day 4, and nematode viability was scored by visual examination under a 100× dissecting microsope on day 5. A visual viability scoring system was used as follows:
Column V1 has a compound concentration of 70 μM with sequential 3-fold dilutions reported in columns V2, V3, V4, V5, and V6, respectively, such that the V6 concentration was 0.3 μM.
The nematicidal activity of anthelmintic Compositions 48-168 were determined in accordance with the procedure outlined in Example 2.

SMILES	5 Day Visual Score V6	5 Day Visual Score V4	5 Day Visual Score V5	5 Day Visual Score V3	5 Day Visual Score V2	5 Day Visual Score V1
CCCCOc1ccc(C(=O)N2CC(OCCCc3ccccc3)CC2C(=O)NCc2ccccc2Br)cc1 (centres unmarked) [AKC 102]	B (low broodsize (25-100 progeny))	L3				
CCCCOc1ccc(-c2noc(C3CCC(NC(=O)c4ccc5c(c4)OCO5)CC3)n2)cc1 (centres unmarked) [AKC 103]	< (reduced broodsize (250-500 progeny))	B (low broodsize (25-100 progeny))	L4/#AD/B	Dead(L4)	Dead(L3/L4)	
CCOc1ccccc1C1=NOC(c2cccc3ccccc23)C1C(=O)NCc1ccc(OC(F)(F)F)cc1 (centres unmarked) [AKC 105]		L2/Dead(L		L2/Dead(L3)	L2/Dead(L3)	L2/Dead(L3)
O=C(Nc1ccc(OC(F)(F)F)cc1)NC1CCC(c2nc(-c3ccccc3)no2)CC1 (centres unmarked) [AKC 107]	L2/Dead(L	Dead(L4)			Dead(L2/L3)	Dead
O=C(Nc1ccc(Br)cc1)N1CCC(c2nc(-c3ccccc3)no2)CC1 [AKC 108]		L1		L1	Dead	Dead
O=C(NCCc1ccccc1F)C1C(c2ccccc2Cl)=NOC1c1ccc(-c2ccccc2)cc1 (centres unmarked) [AKC 110]	L1	L1	L1	L1	L1	L1
COc1ccccc1-c1noc(C(C)CNC(=O)Nc2ccc(OC(F)(F)F)cc2)n1 (centres unmarked) [AKC 111]	OK (no effect (˜1000+ progeny))	Dead(L3/L		L2	Dead	Dead
Cc1ccc(-c2noc(C3CCC(CNC(=O)Nc4ccc(OC(F)(F)F)cc4)CC3)n2)cc1C (centres unmarked) [AKC 112]	OK (no effect (˜1000+ progeny))		#AD/˜B			
O=C(NCC1CCC(c2nc(-c3ccccc3)no2)CC1)Nc1ccc(OC(F)(F)F)cc1 (centres unmarked) [AKC 113]	L4/#AD/B	Dead(L2/L		Dead	Dead	Dead
O=C(Nc1ccc(Br)cc1)NC1CCC(c2nc(-c3ccccc3)no2)CC1 (centres unmarked) [AKC 114]	˜B (moderate broodsize (100-250 progeny))	L3/Dead(L		L3	L3/Dead(L4)	Dead
O=C(NCCCCCc1nc(-c2ccccc2)no1)Nc1ccc(OC(F)(F)F)cc1 [AKC 115]		Dead(L2)	Dead(L2/L	L2/Dead(L2)	Dead(L2/L3)	Dead
O=C(NCCc1ccc(F)cc1)C1C(c2ccccc2Cl)=NOC1c1ccc(-c2ccccc2)cc1 (centres unmarked) [AKC 119]	< (reduced broodsize (250-500 progeny))					
CC(C)(C)C1=NOC(c2ccc(-c3ccccc3)cc2)C1C(=O)NCCc1ccccc1F (centres unmarked) [AKC 120]	OK (no effect (˜1000+ progeny))		#AD/˜B	L1		L1
COc1ccc(C2=NOC(c3ccc(-c4ccccc4)cc3)C2C(=O)NCCc2ccccc2F)cc1 (centres unmarked) [AKC 121]		#AD/˜B			L1	L1
CCOc1ccc(C2ON=C(c3ccc(F)cc3)C2C(=O)NCCc2ccc(F)cc2)cc1 (centres unmarked) [AKC 122]	OK (no effect (˜1000+ progeny))				L1	Dead
CCOc1ccc(C2ON=C(c3ccc(N(C)C)cc3)C2C(=O)NCCc2ccc(F)cc2)cc1 (centres unmarked) [AKC 123]	#AD/˜B					L1
CCOc1cccc(C2ON=C(c3ccccc3OCC)C2C(=O)NCCc2ccc(OC)c(OCC)c2)c1 (centres unmarked) [AKC 124]	L4/#AD/B	L4/#AD/B	L4/#AD/B			
CCOc1cccc(C2ON=C(c3ccccc3OCC)C2C(=O)NCc2ccc(OC(F)(F)F)cc2)c1 (centres unmarked) [AKC 125]		L2		L2	L2/Dead(L4)	L2/Dead(L3)
CCCCOc1ccc(C(=O)N2CC(OCCCc3ccccc3)CC2C(=O)NCc2ccccc2OC)cc1 (centres unmarked) [AKC 126]	#AD/˜B	#AD/˜B	˜B (moderate broodsize (100-250 progeny))			
Cc1ccc(C(CC(=O)c2ccccc2)Nc2ccc(I)cc2)o1 (centres unmarked) [AKC 128]	OK (no effect (˜1000+ progeny))	L1	#AD/˜B	Dead	Dead	Dead
Cc1ccc(C(CC(=O)c2ccccc2)Nc2ccc(I)cc2F)o1 (centres unmarked) [AKC 129]			OK (no effect (˜1000+ progeny))		Dead	Dead
Cc1ccc(C(CC(=O)c2ccc(C)c(C)c2)Nc2cc(Br)c(C)c(Br)c2)o1 (centres unmarked) [AKC 130]		#AD/˜B	OK (no effect (˜1000+ progeny))		#AD/-B	Dead
CCC(=O)C(C)C(Nc1cc(Br)c(C)c(Br)c1)c1ccc(C)o1 (centres unmarked) [AKC 131]	< (reduced broodsize (250-500 progeny))	#AD/˜B	#AD/˜B	#AD/˜B	L1	Dead
CCCc1ccc(C(Nc2ccc(-c3ccccc3)cc2)C2CCCCC2=O)cc1 (centres unmarked) [AKC 132]	Dead			Dead	Dead	Dead(L2)
CCCc1ccc(C(CC(=O)c2ccc(C)cc2)Nc2ccc(-c3ccccc3)cc2)cc1 (centres unmarked) [AKC 133]	Dead	Dead	Dead	Dead	Dead	Dead
Fc1ccc(N2CCN(c3nc(NCCC(c4ccccc4)c4ccccc4)ns3)CC2)cc1 [AKC 134]	OK (no effect (˜1000+ progeny))			Dead	Dead	Dead
Fc1ccc(N2CCN(c3nc(NCc4ccc(C(F)(F)F)cc4)ns3)CC2)cc1 [AKC 135]			˜B (moderate broodsize (100-250 progeny))		L1	Dead
CCCCCCCCS(=O)(=O)N1CCN(C(=O)C=Cc2cccc(C(F)(F)F)c2)CC1C(=O)NCc1ccc(C(F)(F)F)cc1 (centres unmarked) [AKC 171]			< (reduced broodsize (250-500 progeny))	Dead(L4)/#A	L2	Dead
